Measurements reported in patent US20150118179A1, “BIOCIDAL COMPOUNDS AND METHODS FOR USING SAME” (UNIVERSITY OF MANITOBA, priority 2012, published 2015).
Read-outs that look alike come from different tables or passages of the source.

Assays:
[1] = tested on: methicillin resistant Staphylococcus aureus (MRSA 40065); type: cell-based; conditions: [Cl+] 15 ppm, inoculum 10^6 cfu/ml
Method: (§1) Pseudomonas aeruginosa (P. aeruginosa) (#73104, Gram-negative) and Staphylococcus aureus (MRSA) (#40065, Gram-positive) were used as the model microorganism to challenge the antibacterial function of the compounds. It should be noticed that both P. aeruginosa and MRSA are biosafety level 2 microorganisms and potentially biohazardous, therefore the following antibacterial assessments were carried out in a Biological Safety Level 2 cabinet and safety precautions were strictly followed.
(§2) Tryptone Soya agar plates were used as platforms for bacterial cell growth and were prepared following the instructions on the bottle (CM 0131, OXOID). The prepared agar was kept at 65° C. after being autoclaved and the resulting agar plates were stored in fridge at 3-4° C. All glassware and related materials were subjected to autoclave or disinfection with 70% ethanol prior to use.
(§3) Several colonies of each bacteria type were suspended in broth solutions (cation-supplemented Mueller-Hinton broth for P. aeruginosa and tryptic soy broth for MRSA) whose concentrations were equivalent to a 0.5 McFarland standard (1×10^8 cfu/ml). This suspension was then diluted 1:100 and 20 μL of the diluted suspension was further diluted in 60 ml of cation-supplemented Mueller-Hinton broth or tryptic soy broth. Then the prepared bacteria inoculums were incubated overnight at 37° C. to obtain logarithmic-phase cultures. For each microbial study, 0.2 ml (0.02 ml for P. aeruginosa) of the cell suspension was diluted in 19.8 mL (19.98 ml for P. aeruginosa) of phosphate-buffered Saline (PBS, 0.1 M Sodium phosphate monobasic, 0.1 M Sodium phosphate dibasic, pH 7.4) to give a cell concentration of 10^6-10^7 cfu/mL (10^5 cfu/ml for P. aeruginosa). 30 μL of each synthesized compound solution (0.28 N stock solution) were added into the cell suspension to achieve a [Cl^+] of 15 ppm and start timing instantly. The mixture was vortexed several times during the reaction. After contact for the desired time intervals, 1.0 ml cell suspension was withdrawn and added to 1.0 ml of 0.02 N sodium thiosulfate and/or Letheen (1% lecithin, 10% peptone and 0.5% tween 80 dissolved in PBS at pH 7.4) to quench the bactericidal effect. The quenched suspension was then serially diluted (10 times less concentrated than the previous one) and 100 μL of each dilution was placed onto agar plates. The same procedure was applied to the blanks as controls with the same matrices but with no synthesized compounds added. Bacterial colonies on the agar plates were enumerated after being incubated at 37° C. for 22 hours.
(§4) Percentage reduction of bacteria (%)=(A−B)/A×100
(§5) Where A is the number of bacterial colonies in the control (cfu/mL), and B is the number of bacteria colonies under the effect of the synthesized compounds.

[2] = tested on: P. aeruginosa (73104); assay: Antibacterial assessment in PBS suspension (Example 19); type: cell-based, Pseudomonas aeruginosa; conditions: [Cl+] 15 ppm, inoculum 10^5 cfu/ml
Method: as §1, §2, §3, §4, §5

Structure (SMILES) | Bacteria Reduction log10 ([1]; Table 10, contact 1 min) [log10] | Bacteria reduction % ([1]; Table 10, contact 1 min) [%] | Bacteria Reduction log10 ([1]; Table 10, contact 3 min) [log10] | Bacteria reduction % ([1]; Table 10, contact 3 min) [%] | Bacteria Reduction log10 ([1]; Table 10, contact 5 min) [log10] | Bacteria reduction % ([1]; Table 10, contact 5 min) | Bacteria Reduction log10 ([1]; Table 10, contact 10 min) [log10] | Bacteria reduction % ([1]; Table 10, contact 10 min) [%] | Bacteria Reduction log10 ([1]; Table 10, contact 60 min) [log10] | Bacteria reduction % ([1]; Table 10, contact 60 min) [%] | Bacteria Reduction log10 ([2]; Table 10, contact 3 min) [log10] | Bacteria reduction % ([2]; Table 10, contact 3 min) [%] | Bacteria Reduction log10 ([2]; Table 10, contact 10 min) [log10] | Bacteria reduction % ([2]; Table 10, contact 10 min) [%] | Bacteria Reduction log10 ([2]; Table 10, contact 20 min) [log10] | Bacteria reduction % ([2]; Table 10, contact 20 min) [%] | Bacteria Reduction log10 ([2]; Table 10, contact 30 min) [log10] | Bacteria reduction % ([2]; Table 10, contact 30 min) [%] | Bacteria Reduction log10 ([2]; Table 10, contact 60 min) [log10] | Bacteria reduction % ([2]; Table 10, contact 60 min) [%]
CCCCCC[N+](C)(C)CCCN1C(=O)N(Cl)C(C)(C)C1=O.[Cl-] [Compound 6] | 0.66 | 78.3 | 0.67 | 78.9 | 0.76 | 82.8% | 1.00 | 89.3 | 2.11 | 99.2 | 0.24 | 42.7 | 0.30 | 49.3 | 0.50 | 68.6 | 1.52 | 97.0 | 5.80 | 100
CCCCCCCCCCCC[N+](C)(C)CCCN1C(=O)NC(C)(C)C1=O [Compound 7] | 0 | 0 | 0 | 0 | 0.85 | 85.6. % | 2.59 | 99.7 | 6.26 | 100 | 5.80 | 100 | 5.80 | 100 | 5.80 | 100 | 5.80 | 100 | 5.80 | 100
CCCCCCCCCCCC[N+](C)(C)CCCN1C(=O)N(Cl)C(C)(C)C1=O.[Cl-] [Compound 8] | 0.13 | 26.1 | 6.26 | 100 | 6.26 | 100% | 6.26 | 100 | 6.26 | 100 | 5.80 | 100 | 5.80 | 100 | 5.80 | 100 | 5.80 | 21.4 | 5.80 | 100
CC1(C)C(=O)N(CC[N+](C)(C)C)C(=O)N1Cl.[Cl-] [Compound 10] | 0.74 | 81.7 | 0.63 | 76.7 | 0.50 | 68.2% | 0.81 | 84.5 | 1.33 | 95.3 | – | – | 0.35 | 55.1 | 5.27 | 100 | 5.27 | 100 | 5.27 | 100
